In patent US10138252B1, “Lactones” (Purdue Research Foundation, priority 2017, dated 2018):
≈ marks a conversion by molar mass, not a printed value.

Assays:
[1] = Antifungal broth microdilution MIC assay; conditions: read-out: minimum inhibitory concentrations
[2] = system: Clostridium difficile; test: Broth microdilution MIC against C. difficile strains; conditions: Clostridioides difficile, BAA1870, 48 h, read-out: minimum inhibitory concentrations (MIC)

Structure (SMILES) | MIC [1] | MIC [2]
Cc1ccc(S(=O)(=O)N2CCC3=C2C(c2cccc(Br)c2)OC3=O)cc1 (stereo not drawn) [Example 8, 6-(3-bromophenyl)-1-tosyl-1,2,3,6-tetrahydro-4H-furo[3,4-b]pyrrol-4-one] | 64 to 128 µM (≈ 27.8 to 55.6 µg/mL) | 64 to 128 µM (≈ 27.8 to 55.6 µg/mL)
CCCC1OC(=O)/C1=C1\CCCN1S(=O)(=O)c1ccc(C)cc1 (stereo not drawn) [Example 22, (E)-4-propyl-3-(1-tosylpyrrolidin-2-ylidene)oxetan-2-one] | 64 to 128 µM (≈ 21.5 to 42.9 µg/mL) | –
Cc1ccc(S(=O)(=O)N2CCC3=C2COC3=O)cc1 [Example 11, 1-tosyl-1,2,3,6-tetrahydro-4H-furo[3,4-b]pyrrol-4-one] | 64 to 128 µM (≈ 17.9 to 35.8 µg/mL) | –
Cc1ccc(S(=O)(=O)N2CCC3=C2C2(COC2)OC3=O)cc1 [Example 19, 1-tosyl-2,3-dihydrospiro[furo[3,4-b]pyrrole-6,3′-oxetan]-4(1H)-one] | 64 to 128 µM (≈ 20.6 to 41.1 µg/mL) | 64 to 128 µM (≈ 20.6 to 41.1 µg/mL)
